Drawing on patent US9481654B2, “Compositions and methods for inhibition of the JAK pathway” (Rigel Pharmaceuticals, Inc., priority 2006, dated 2016), this text covers IC50 for 20 molecules.

The test system of assay [1] is IL-4 stimulated CD23 upregulation in human Ramos B cells (JAK-1/JAK-3, Stat-6). Description: Assay for Ramos B-Cell Line Stimulated with IL-4 (CD23 upregulation, FACS). The format is cell-based. The text has this:
One means of assaying for such inhibition is detection of the effect of the 2,4-pyrimidinediamine compounds on the upregulation of downstream gene products. In the Ramos/IL4 assay, B-cells are stimulated with the cytokine Interleukin-4 (IL-4) leading to the activation of the JAK/Stat pathway through phosphorylation of the JAK family kinases, JAK1 and JAK3, which in turn phosphorylate and activate the transcription factor Stat-6. […] To study the effect of inhibitors (e.g., the 2,4-substituted pyrimindinediamine compounds described herein) on the JAK1 and JAK3 kinases, human Ramos B cells are stimulated with human IL-4. 20 to 24 hours post stimulation, cells are stained for upregulation of CD23 and analyzed using flow cytometry (FACS).
B-cells stimulated with cytokine Interleukin-4 (IL-4) activate the JAK/Stat pathway through phosphorylation of the JAK family kinases, JAK-1 and JAK-3, which in turn phosphorylate and activate the transcription factor Stat-6. […] To study the effect of inhibitors on the JAK family kinases, human Ramos B cells are stimulated with human IL-4.
Cells were maintained at a density of 3.5×10^5. The day before the experiment, Ramos B-cells were diluted to 3.5×10^5 cells/mL to ensure that they were in a logarithmic growth phase.
Cells were spun down and suspended in RPMI with 5% serum. 5×10^4 cells were used per point in a 96-well tissue culture plate. Cells were pre-incubated with compound or DMSO (Sigma-Aldrich, St. Louis, Mo., Cat No. D2650) vehicle control for 1 hour in a 37° C. incubator. Cells were then stimulated with IL-4 (Peprotech Inc., Rocky Hill, N.J., Cat No. 200-04) for a final concentration of 50 units/mL for 20-24 hours. […] Detection was performed using a BD LSR I System Flow Cytometer, purchased from Becton Dickinson Biosciences of San Jose, Calif.

For assay [2], the system named is primary human T-cells (IL-2 induced proliferation, JAK-1/JAK-3, Stat-5). Description: Primary Human T-Cell Proliferation Assay Stimulated with IL-2 (CellTiter-Glo). The format is cell-based. Particulars: Table III Example 4. Here is the method: In this assay, primary human T-cells derived from peripheral blood and pre-activated through stimulation of the T-cell receptor and CD28, proliferate in culture in response to the cytokine Interleukin-2 (IL-2). This proliferative response is dependent on the activation of JAK1 and JAK3 tyrosine kinases, which phosphorylate and activate the transcription factor Stat-5. The primary human T-cells are incubated with the 2,4-pyrimidinediamine compounds in the presence of IL-2 for 72 hours, and at the assay endpoint intracellular ATP concentrations are measured to assess cell viability. A reduction in cell proliferation compared to control conditions is indicative of inhibition of the JAK kinase pathway.
Primary human T-cells derived from peripheral blood and pre-activated through stimulation of the T-cell receptor and CD28 proliferate in vitro in response to the cytokine Interleukin-2 (IL-2). This proliferative response is dependent on the activation of JAK-1 and JAK-3 tyrosine kinases, which phosphorylate and activate the transcription factor Stat-5.
Human primary T cells were prepared as follows. […] The lymphocytes at the serum: ficoll interface were recovered and washed twice with 5 volumes of PBS. […] The primary T-cells were stimulated for 3 to 4 days, then transferred to a fresh flask and maintained in RPMI with 10% FBS and 40 U/mL IL-2.
Primary T-cells were washed twice with PBS to remove the IL-2 and resuspended in Yssel's medium at 2×10^6 cells/mL. 50 μL of cell suspension containing 80 U/mL IL-2 was added to each well of a flat bottom 96 well black plate. For the unstimulated control, IL-2 was omitted from the last column on the plate. […] 50 μL of 2× compound was added per well in duplicate and the cells were allowed to proliferate for 72 hours at 37° C.
Proliferation was measured using CellTiter-Glo® Luminescent Cell Viability Assay (Promega), which determines the number of viable cells in culture based on quantitation of the ATP present, as an indicator of metabolically active cells. The substrate was thawed and allowed to come to room temperature. After mixing the Cell Titer-Glo reagent and diluent together, 100 μL was added to each well. The plates were mixed on an orbital shaker for two minutes to induce lysis and incubated at room temperature for an additional ten minutes to allow the signal to equilibrate.
A general note: ATP-based viability assays read luminescence as a measure of living cells.

Setting [3] is: Homo sapiens, Ramos, Table III Example 3.
Setting [4] is: Table III Example 3, sodium salt.

Where a name gives a salt, the structure may show the parent alone.

`Cc1cnc(Nc2ccc(S(=O)(=O)NCc3ccccc3)cc2)nc1Nc1cccc(CNS(=O)(=O)C2CC2)c1` [Compound I-157, N2-(4-benzylaminosulfonyl)phenyl-N4-(3-cyclopropylsulfonylaminomethyl)phenyl-5-methyl-2,4-pyrimidinediamine]: the IC50 (as a rule, the concentration that inhibits the measured activity by half) is 250 nM in assay [1] (Table III Example 3) and 1100 nM in assay [2].

For the molecule `Cc1cnc(Nc2cccc(S(=O)(=O)NC3CCN(C)CC3)c2)nc1Nc1cccc(CNS(=O)(=O)C2CC2)c1` [Compound I-160, N4-(3-cyclopropylsulfonylaminomethyl)phenyl-5-methyl-N2-[3-(1-methylpiperidin-4-yl)aminosulfonyl]phenyl-2,4-pyrimidinediamine], the IC50 in assay [1] (Table III Example 3) is 242 nM; in assay [2] it was 3960 nM.

For `C#CCNS(=O)(=O)Cc1cccc(Nc2nc(Nc3ccc(S(N)(=O)=O)cc3)ncc2F)c1` [Compound I-2, N2-(4-Aminosulfonylphenyl)-5-fluoro-N4-[3-(prop-2-ynylaminosulfonylmethyl)phenyl]-2,4-pyrimidinediamine], the IC50 in assay [1] (setting [3]) was 647 nM; in assay [2] (Homo sapiens, T-cell) it was 3730 nM.

Take `C#CCNS(=O)(=O)Cc1ccc(Nc2nc(Nc3ccc(S(N)(=O)=O)cc3)ncc2F)cc1` [Compound I-6, N2-(4-Aminosulfonylphenyl)-5-fluoro-N4-[4-(prop-2-ynylaminosulfonylmethyl)phenyl]-2,4-pyrimidinediamine]: the IC50 in assay [1] (setting [3]) was found to be 559 nM; in assay [2] (Homo sapiens, T-cell), 536 nM.

As for `Cc1cnc(Nc2ccc(S(=O)(=O)NC3CCN(C)CC3)cc2)nc1Nc1cccc(CNS(=O)(=O)C2CC2)c1` [Compound I-159, N4-(3-cyclopropylsulfonylaminomethyl)phenyl-5-methyl-N2-[4-(1-methylpiperidin-4-yl)aminosulfonyl]phenyl-2,4-pyrimidinediamine], the results for the IC50 in assay [1] (Table III Example 3) and in assay [2] were 539 nM and 7960 nM, respectively.

In the case of `C#CCNS(=O)(=O)c1cccc(Nc2ncc(F)c(Nc3ccc(CNS(=O)(=O)C4CC4)cc3)n2)c1` [Compound I-7, 5-Fluoro-N4-[4-(cyclopropylsulfonylaminomethyl)phenyl]-N2-[3-(prop-2-ynylaminosulfonyl)phenyl]-2,4-pyrimidinediamine], the half-inhibitory concentration (IC50) in assay [1] (setting [3]) worked out at 73.5 nM; in assay [2] (Homo sapiens, T-cell), 113 nM.

`Cc1cnc(Nc2ccc(S(=O)(=O)Nc3ccccc3)cc2)nc1Nc1ccc(CNS(=O)(=O)C2CC2)cc1` [Compound I-149, N4-(4-cyclopropylsulfonylaminomethyl)phenyl-5-methyl-N2-(4-phenylaminosulfonyl)phenyl-2,4-pyrimidinediamine]: the IC50 in assay [1] (Table III Example 3) worked out at 82.2 nM; in assay [2] it was 190 nM.

For the molecule `Cc1ccc(Nc2ncc(F)c(Nc3ccc4c(c3)CN(S(=O)(=O)C3CC3)C4)n2)cc1S(N)(=O)=O` [II-4, N2-(3-Aminosulfonyl-4-methylphenyl)-N4-[(2-cyclopropylsulfonyl)-isoindolin-5-yl]-5-fluoro-2,4-pyrimidinediamine], inhibition in assay [1] (Table III Example 3) was half-maximal at 720 nM (IC50).

In assay [1] (Table III Example 3), `CCCCCC(=O)NS(=O)(=O)c1cccc(Nc2ncc(C)c(Nc3cccc(CN(C(=O)CCCCC)S(=O)(=O)C4CC4)c3)n2)c1` [Compound I-218, N4-[3-(N-cyclopropylsulfonyl-N-hexanoyl)aminomethyl]phenyl-N2-(3-hexanoylaminosulfonyl)phenyl-5-methyl-2,4-pyrimidinediamine] came in with a 50% inhibitory concentration (IC50) of 3800 nM.

In the case of `Cc1cnc(Nc2cccc(S(=O)(=O)NC(=O)C(C)C)c2)nc1Nc1cccc(CN(C(=O)C(C)C)S(=O)(=O)C2CC2)c1` [Compound I-198, N4-[3-(N-cyclopropylsulfonyl-N-isobutyryl)aminomethyl]phenyl-N2-(3-isobutyrylaminosulfonyl)phenyl-5-methyl-2,4-pyrimidinediamine], half-maximal inhibition in assay [1] (Table III Example 3) (IC50) was put at 2050 nM.

With `Cc1cnc(Nc2cccc(S(=O)(=O)Nc3cccnc3)c2)nc1Nc1ccc(CNS(=O)(=O)C2CC2)cc1` [Compound I-174, N4-(4-cyclopropylsulfonylaminomethyl)phenyl-5-methyl-N2-[3-(3-pyridyl)aminosulfonyl]phenyl-2,4-pyrimidinediamine], inhibition in assay [1] (Table III Example 3) was half-maximal at 1120 nM (IC50).

Molecule `CCCC(=O)NS(=O)(=O)c1cccc(Nc2ncc(C)c(Nc3cccc(CN(C(=O)CCC)S(=O)(=O)C4CC4)c3)n2)c1` [Compound I-203, N2-(3-butyrylaminosulfonyl)phenyl-N4-[3-(N-butyryl-N-cyclopropylsulfonyl)aminomethyl]phenyl-5-methyl-2,4-pyrimidinediamine] yielded an IC50 in assay [1] (Table III Example 3) of 3020 nM.

In assay [1] (Table III Example 3), `Cc1cnc(Nc2cccc(S(=O)(=O)NC(=O)[C@@H](N)Cc3ccccc3)c2)nc1Nc1cccc(CNS(=O)(=O)C2CC2)c1` [Compound I-134, N2-[3-N-(L-Phe)aminosulfonyl]phenyl-N4-(3-cyclopropylsulfonylaminomethyl)phenyl-5-methyl-2,4-pyrimidinediamine] came in with an IC50 of 751 nM.

Molecule `Cc1cnc(Nc2cccc(S(=O)(=O)NC(=O)CNC(=O)OCc3ccccc3)c2)nc1Nc1cccc(CNS(=O)(=O)C2CC2)c1` [Compound I-142, N2-{3-N-[2-(benzoxycarbonylamino)-1-oxoethyl]aminosulfonyl}phenyl-N4-(3-cyclopropylsulfonylaminomethyl)phenyl-5-methyl-2,4-pyrimidinediamine] registered a half-inhibitory concentration (IC50) in assay [1] (Table III Example 3) of 5620 nM.

For the molecule `Cc1cnc(Nc2cccc(S(=O)(=O)NC(=O)[C@H](Cc3ccccc3)NC(=O)OCc3ccccc3)c2)nc1Nc1cccc(CNS(=O)(=O)C2CC2)c1` [Compound I-139, N2-[3-N-(Cbz-L-Phe)aminosulfonyl]phenyl-N4-(3-cyclopropylsulfonylaminomethyl)phenyl-5-methyl-2,4-pyrimidinediamine], the IC50 in assay [1] (Table III Example 3) stood at 3320 nM.

On to `CCC(=O)NS(=O)(=O)c1cccc(Nc2ncc(C)c(Nc3cccc(CNS(=O)(=O)C4CC4)c3)n2)c1` [Compound I-137, N4-(3-cyclopropylsulfonylaminomethyl)phenyl-5-methyl-N2-(3-propionylaminosulfonyl)phenyl-2,4-pyrimidinediamine sodium salt], for which the IC50 in assay [1] (setting [4]) came to 1910 nM.

For the molecule `CCC(=O)NS(=O)(=O)c1ccc(Nc2ncc(C)c(Nc3ccc(CNS(=O)(=O)C4CC4)cc3)n2)cc1` [Compound I-88, N4-(4-cyclopropylsulfonylaminomethyl)phenyl-5-methyl-N2-(4-propionylaminosulfonyl)phenyl-2,4-pyrimidinediamine sodium salt], the half-inhibitory concentration (IC50) in assay [1] (setting [4]) came out at 59.9 nM.

Consider `CCOC(=O)N(CC)S(=O)(=O)c1cccc(Nc2ncc(C)c(Nc3cccc(CNS(=O)(=O)C4CC4)c3)n2)c1` [Compound I-130, N4-(3-cyclopropylsulfonylaminomethyl)phenyl-N2-[3-(N-ethoxycarbonyl-N-ethyl)aminosulfonyl]phenyl-5-methyl-2,4-pyrimidinediamine], for which the IC50 in assay [1] (Table III Example 3) amounted to 544 nM.

Molecule `NS(=O)(=O)c1ccc(Nc2ncc(F)c(Nc3ccc4c(c3)CN(S(=O)(=O)C3CC3)C4)n2)cc1` [II-6, N2-(4-Aminosulfonyl-phenyl)-N4-[(2-cyclopropylsulfonyl)-isoindolin-5-yl]-5-fluoro-2,4-pyrimidinediamine] had an IC50 in assay [1] (Table III Example 3) of 640 nM.

In assay [1] (Table III Example 3), `CCC(=O)NS(=O)(=O)c1cccc(Nc2ncc(C)c(Nc3cccc(CN(C(=O)CC)S(=O)(=O)C4CC4)c3)n2)c1` [Compound I-226, N4-[3-(N-cyclopropylsulfonyl-N-propionyl)aminomethyl]phenyl-5-methyl-N2-(3-propionylaminosulfonyl)phenyl-2,4-pyrimidinediamine Choline salt] came in with an IC50 of 5490 nM.
